How the values were obtained:
fibrinolysis = test: concentrations effective against fibrinolysis; conditions: one tenth of the doses used in the non-GLP acute porcine study
Text: However, in some embodiments, however, higher doses of tranexamic acid are used for topical applications to account for tranexamic acid being widely distributed throughout the extracellular and intracellular compartments when given preoperatively.

[1] = given preoperatively; cited from earlier work
myofibroblast formation = conditions: Ajmal et al. (2003); cited from earlier work

Compound	effective in reversing fibrinolysis (fibrinolysis)	time to reach plasma concentrations [1] [min]	myofibroblast formation (myofibroblast formation)
NC[C@H]1CC[C@H](C(=O)O)CC1 [tranexamic acid]	effective	5 to 15	–
O=S(=O)([O-])CCS.[Na+] [MESNA, sodium 2-mercaptoethane sulfonate]	–	–	diminish myofibroblast formation

Source: patent publication US20230173764A1, “SURGICAL SYSTEM AND METHODS OF USE” (priority 2021, published 2023)
